According to patent publication US10890591B2, “Methods and dose packs for monitoring medication adherence” (Synapse Biosciences, LLC, priority 2016, dated 2021):
Read-outs that look alike come from different tables or passages of the source.

Assays:
clinical [1] = settings: human, in vivo
clinical [2] = settings: in vivo
[3] = human, in vivo
clinical [4] = settings: human, in vivo, Urine Results
[5] = human, Average of Urine Samples
[6] = human, Subject A, Urine Results
[7] = human, Subject B, Urine Results

Compound: O=C1O[C@H]([C@@H](O)CO)C(O)=C1O [Ascorbic Acid]
- concentration at 1 day (clinical [1]): 30.7 ng/mL
- concentration at 2 day (clinical [1]): 33.6 ng/mL
- concentration at 3 day (clinical [1]): 32.8 ng/mL
- concentration at 4 day (clinical [1]): 33.3 ng/mL
- concentration at 5 day (clinical [1]): 23.8 ng/mL
- concentration at 6 day (clinical [1]): 36.2 ng/mL
- concentration at 7 day (clinical [1]): 36.8 ng/mL
- concentration at 8 day (clinical [1]): 27 ng/mL
- Subject C, Urine Results (clinical [2]; human, 1 day): 1290 ng/m
- Subject D, Urine Results (clinical [2]; human, 1 day): 4167 ng/m
- Subject C, Urine Results (clinical [2]; human, 2 day): 2106 ng/m
- Subject D, Urine Results (clinical [2]; human, 2 day): 2789 ng/m
- Subject C, Urine Results (clinical [2]; human, 3 day): 1947 ng/m
- Subject D, Urine Results (clinical [2]; human, 3 day): 3626 ng/m
- Subject C, Urine Results (clinical [2]; human, 4 day): 1892 ng/m
- Subject D, Urine Results (clinical [2]; human, 4 day): 3426 ng/m
- Subject C, Urine Results (clinical [2]; human, 5 day): 2503 ng/m
- Subject D, Urine Results (clinical [2]; human, 5 day): 2268 ng/m
- Subject C, Urine Results (clinical [2]; human, 6 day): 1812 ng/m
- Subject D, Urine Results (clinical [2]; human, 6 day): 3024 ng/m
- Subject C, Urine Results (clinical [2]; human, 7 day): 1751 ng/m
- Subject D, Urine Results (clinical [2]; human, 7 day): 3908 ng/m
- Subject C, Urine Results (clinical [2]; human, 8 day): 2020 ng/m
- Subject D, Urine Results (clinical [2]; human, 8 day): 2894 ng/m
- concentration at 1 day (clinical [2]; [5]): 1960 ng/mL
- concentration at 2 day (clinical [2]; [5]): 2100 ng/mL
- concentration at 3 day (clinical [2]; [5]): 2260 ng/mL
- concentration at 4 day (clinical [2]; [5]): 2660 ng/mL
- concentration at 5 day (clinical [2]; [5]): 2030 ng/mL
- concentration at 6 day (clinical [2]; [5]): 1960 ng/mL
- concentration at 7 day (clinical [2]; [5]): 2560 ng/mL
- concentration at 8 day (clinical [2]; [5]): 2100 ng/mL
- concentration at 7 day (clinical [2]; [6]): 2800 ng/mL
- course of urine levels relative to dosing (clinical [2]): did not differ significantly from baseline levels
- course of urine levels relative to dosing [3]: did not differ significantly from baseline levels
- concentration at 7 day (clinical [4]; Subject A): 2920 ng/mL
- concentration at 1 day (clinical [4]; Subject C): 1870 ng/mL
- concentration at 2 day (clinical [4]; Subject C): 2490 ng/mL
- concentration at 3 day (clinical [4]; Subject C): 4540 ng/mL
- concentration at 4 day (clinical [4]; Subject C): 2520 ng/mL
- concentration at 5 day (clinical [4]; Subject C): 5290 ng/mL
- concentration at 6 day (clinical [4]; Subject C): 1040 ng/mL
- concentration at 7 day (clinical [4]; Subject C): 1840 ng/mL
- concentration at 8 day (clinical [4]; Subject C): 1610 ng/mL
- concentration at 3 day (clinical [4]; Subject D): 4900 ng/mL
- concentration at 4 day (clinical [4]; Subject D): 4930 ng/mL
- concentration at 5 day (clinical [4]; Subject D): 5020 ng/mL
- concentration at 6 day (clinical [4]; Subject D): 4400 ng/mL
- concentration at 8 day (clinical [4]; Subject D): 4320 ng/mL

Compound: CN(C)CCOC(c1ccccc1)c1ccccc1 [Diphenhydramine]
- concentration at 1 day (clinical [1]): 0 ng/mL
- concentration at 2 day (clinical [1]): 0 ng/mL
- concentration at 3 day (clinical [1]): 0 ng/mL
- concentration at 4 day (clinical [1]): 0 ng/mL
- concentration at 5 day (clinical [1]): 0 ng/mL
- concentration at 6 day (clinical [1]): 227 ng/mL
- concentration at 7 day (clinical [1]): 0 ng/mL
- concentration at 8 day (clinical [1]): 0 ng/mL
- detection of marker in saliva across subjects (clinical [1]): not detectable in 2 of the 4 subjects
- Subject C, Urine Results (clinical [2]; human, 1 day): 0 ng/m
- Subject D, Urine Results (clinical [2]; human, 1 day): 0 ng/m
- Subject C, Urine Results (clinical [2]; human, 2 day): 0 ng/m
- Subject D, Urine Results (clinical [2]; human, 2 day): 0 ng/m
- Subject C, Urine Results (clinical [2]; human, 3 day): 0 ng/m
- Subject D, Urine Results (clinical [2]; human, 3 day): 0 ng/m
- Subject C, Urine Results (clinical [2]; human, 4 day): 0 ng/m
- Subject D, Urine Results (clinical [2]; human, 4 day): 0 ng/m
- Subject C, Urine Results (clinical [2]; human, 5 day): 0 ng/m
- Subject D, Urine Results (clinical [2]; human, 5 day): 0 ng/m
- Subject A, Urine Results (clinical [2]; human, 6 day): 2020000 ng/mL
- Subject C, Urine Results (clinical [2]; human, 6 day): 618000 ng/m
- Subject D, Urine Results (clinical [2]; human, 6 day): 585000 ng/m
- Subject C, Urine Results (clinical [2]; human, 7 day): 144000 ng/m
- Subject D, Urine Results (clinical [2]; human, 7 day): 185000 ng/m
- Subject C, Urine Results (clinical [2]; human, 8 day): 125000 ng/m
- Subject D, Urine Results (clinical [2]; human, 8 day): 54100 ng/m
- concentration at 1 day (clinical [2]; [5]): 0 ng/mL
- concentration at 2 day (clinical [2]; [5]): 0 ng/mL
- concentration at 3 day (clinical [2]; [5]): 0 ng/mL
- concentration at 4 day (clinical [2]; [5]): 0 ng/mL
- concentration at 5 day (clinical [2]; [5]): 0 ng/mL
- concentration at 6 day (clinical [2]; [5]): 972000 ng/mL
- concentration at 7 day (clinical [2]; [5]): 163000 ng/mL
- concentration at 8 day (clinical [2]; [5]): 88700 ng/mL
- concentration at 1 day (clinical [2]; [6]): 0 ng/mL
- concentration at 2 day (clinical [2]; [6]): 0 ng/mL
- concentration at 3 day (clinical [2]; [6]): 0 ng/mL
- concentration at 4 day (clinical [2]; [6]): 0 ng/mL
- concentration at 5 day (clinical [2]; [6]): 0 ng/mL
- concentration at 1 day (clinical [2]; [7]): 0 ng/mL
- concentration at 2 day (clinical [2]; [7]): 0 ng/mL
- concentration at 3 day (clinical [2]; [7]): 0 ng/mL
- concentration at 4 day (clinical [2]; [7]): 0 ng/mL
- concentration at 5 day (clinical [2]; [7]): 0 ng/mL
- concentration at 6 day (clinical [2]; [7]): 663000 ng/mL
- concentration at 7 day (clinical [2]; [7]): 151000 ng/mL
- concentration at 8 day (clinical [2]; [7]): 120000 ng/mL
- course of urine levels relative to dosing (clinical [2]): zero before dosing, peaked the day after dosing and slowly decreased over time
- course of urine levels relative to dosing [3]: zero before dosing, peaked the day after dosing and slowly decreased over time
- concentration at 1 day (clinical [4]; Subject A): 0 ng/mL
- concentration at 2 day (clinical [4]; Subject A): 0 ng/mL
- concentration at 3 day (clinical [4]; Subject A): 0 ng/mL
- concentration at 4 day (clinical [4]; Subject A): 0 ng/mL
- concentration at 5 day (clinical [4]; Subject A): 0 ng/mL
- concentration at 6 day (clinical [4]; Subject A): 481000 ng/mL
- concentration at 1 day (clinical [4]; Subject B): 0 ng/mL
- concentration at 2 day (clinical [4]; Subject B): 0 ng/mL
- concentration at 3 day (clinical [4]; Subject B): 0 ng/mL
- concentration at 4 day (clinical [4]; Subject B): 0 ng/mL
- concentration at 5 day (clinical [4]; Subject B): 0 ng/mL
- concentration at 6 day (clinical [4]; Subject B): 0 ng/mL
- concentration at 7 day (clinical [4]; Subject B): 0 ng/mL
- concentration at 8 day (clinical [4]; Subject B): 0 ng/mL
- concentration at 1 day (clinical [4]; Subject C): 0 ng/mL
- concentration at 2 day (clinical [4]; Subject C): 0 ng/mL
- concentration at 3 day (clinical [4]; Subject C): 0 ng/mL
- concentration at 4 day (clinical [4]; Subject C): 0 ng/mL
- concentration at 5 day (clinical [4]; Subject C): 0 ng/mL
- concentration at 6 day (clinical [4]; Subject C): 151000 ng/mL
- concentration at 7 day (clinical [4]; Subject C): 214000 ng/mL
- concentration at 8 day (clinical [4]; Subject C): 8840 ng/mL
- concentration at 3 day (clinical [4]; Subject D): 0 ng/mL
- concentration at 4 day (clinical [4]; Subject D): 0 ng/mL
- concentration at 5 day (clinical [4]; Subject D): 0 ng/mL
- concentration at 6 day (clinical [4]; Subject D): 684000 ng/mL
- concentration at 8 day (clinical [4]; Subject D): 75300 ng/mL

Compound: NC(N)=Nc1nc(CSCCC(N)=NS(N)(=O)=O)cs1 [Famotidine]
- concentration at 1 day (clinical [1]): 0 ng/mL
- concentration at 2 day (clinical [1]): 0 ng/mL
- concentration at 3 day (clinical [1]): 0 ng/mL
- concentration at 4 day (clinical [1]): 0 ng/mL
- concentration at 5 day (clinical [1]): 5.71 ng/mL
- concentration at 6 day (clinical [1]): 0.34 ng/mL
- concentration at 7 day (clinical [1]): 0 ng/mL
- concentration at 8 day (clinical [1]): 0 ng/mL
- Subject C, Urine Results (clinical [2]; human, 1 day): 0 ng/m
- Subject D, Urine Results (clinical [2]; human, 1 day): 0 ng/m
- Subject C, Urine Results (clinical [2]; human, 2 day): 0 ng/m
- Subject D, Urine Results (clinical [2]; human, 2 day): 0 ng/m
- Subject C, Urine Results (clinical [2]; human, 3 day): 0 ng/m
- Subject D, Urine Results (clinical [2]; human, 3 day): 0 ng/m
- Subject C, Urine Results (clinical [2]; human, 4 day): 0 ng/m
- Subject D, Urine Results (clinical [2]; human, 4 day): 0 ng/m
- Subject C, Urine Results (clinical [2]; human, 5 day): 968 ng/m
- Subject D, Urine Results (clinical [2]; human, 5 day): 3820 ng/m
- Subject C, Urine Results (clinical [2]; human, 6 day): 165 ng/m
- Subject D, Urine Results (clinical [2]; human, 6 day): 260 ng/m
- Subject C, Urine Results (clinical [2]; human, 7 day): 122 ng/m
- Subject D, Urine Results (clinical [2]; human, 7 day): 37.3 ng/m
- Subject C, Urine Results (clinical [2]; human, 8 day): 78.9 ng/m
- Subject D, Urine Results (clinical [2]; human, 8 day): 19.4 ng/m
- concentration at 1 day (clinical [2]; [5]): 0 ng/mL
- concentration at 2 day (clinical [2]; [5]): 0 ng/mL
- concentration at 3 day (clinical [2]; [5]): 0 ng/mL
- concentration at 4 day (clinical [2]; [5]): 0 ng/mL
- concentration at 5 day (clinical [2]; [5]): 1560 ng/mL
- concentration at 6 day (clinical [2]; [5]): 203 ng/mL
- concentration at 7 day (clinical [2]; [5]): 64.5 ng/mL
- concentration at 8 day (clinical [2]; [5]): 43.2 ng/mL
- concentration at 1 day (clinical [2]; [6]): 0 ng/mL
- concentration at 2 day (clinical [2]; [6]): 0 ng/mL
- concentration at 3 day (clinical [2]; [6]): 0 ng/mL
- concentration at 4 day (clinical [2]; [6]): 0 ng/mL
- concentration at 1 day (clinical [2]; [7]): 0 ng/mL
- concentration at 2 day (clinical [2]; [7]): 0 ng/mL
- concentration at 3 day (clinical [2]; [7]): 0 ng/mL
- concentration at 4 day (clinical [2]; [7]): 0 ng/mL
- course of urine levels relative to dosing (clinical [2]): zero before dosing, peaked the day after dosing and slowly decreased over time
- course of urine levels relative to dosing [3]: zero before dosing, peaked the day after dosing and slowly decreased over time
- concentration at 1 day (clinical [4]; Subject A): 0 ng/mL
- concentration at 2 day (clinical [4]; Subject A): 0 ng/mL
- concentration at 3 day (clinical [4]; Subject A): 0 ng/mL
- concentration at 4 day (clinical [4]; Subject A): 0 ng/mL
- concentration at 1 day (clinical [4]; Subject B): 0 ng/mL
- concentration at 2 day (clinical [4]; Subject B): 0 ng/mL
- concentration at 3 day (clinical [4]; Subject B): 0 ng/mL
- concentration at 4 day (clinical [4]; Subject B): 0 ng/mL
- concentration at 1 day (clinical [4]; Subject C): 0 ng/mL
- concentration at 2 day (clinical [4]; Subject C): 0 ng/mL
- concentration at 3 day (clinical [4]; Subject C): 0 ng/mL
- concentration at 4 day (clinical [4]; Subject C): 0 ng/mL
- concentration at 5 day (clinical [4]; Subject C): 3830 ng/mL
- concentration at 6 day (clinical [4]; Subject C): 429 ng/mL
- concentration at 7 day (clinical [4]; Subject C): 390 ng/mL
- concentration at 8 day (clinical [4]; Subject C): 139 ng/mL
- concentration at 3 day (clinical [4]; Subject D): 0 ng/mL
- concentration at 4 day (clinical [4]; Subject D): 0 ng/mL
- concentration at 5 day (clinical [4]; Subject D): 5050 ng/mL
- concentration at 6 day (clinical [4]; Subject D): 1670 ng/mL
- concentration at 8 day (clinical [4]; Subject D): 27.8 ng/mL
